According to patent publication US20060251638A1, “Cytoprotection through the use of hif hydroxylase inhibitors” (priority 2003, published 2006):

Tests used:
gene encoding HSP70-3 = test: HSP70-3 mRNA levels in mouse tissues after oral dosing (microarray); assay type: in vivo
Protocol: Twelve Swiss Webster male mice (30-32 g) were obtained from Simonsen, Inc (Gilroy, Calif.) and treated by oral gavage two times per day for 2.5 days (5 doses) with a 4 ml/kg volume of either 0.5% carboxymethyl cellulose (CMC; Sigma-Aldrich, St. Louis Mo.) (0 mg/kg/day) or 2.5% compound H (25 mg/ml in 0.5% CMC) (200 mg/kg/day). Four hours after the final dose, the mice were then sacrificed and approximately 150 mg of liver and each kidney were isolated and stored in RNALATER solution (Ambion) at −20° C.
To determine gene induction patterns over time, twenty four Swiss Webster male mice (30-32 g) were obtained from Simonsen, Inc. and treated by oral gavage with a 4 ml/kg volume of either 0.5% carboxymethyl cellulose (CMC; Sigma-Aldrich, St. Louis Mo.) (0 mg/kg) or […] compound H (25 mg/ml in 0.5% CMC) (100 mg/kg). At 4, 8, 16, 24, 48, or 72 hours after the final dose, animals were anesthetized with isoflurane. The mice were then sacrificed and tissue samples of kidney, liver, brain, lung, and heart were isolated and stored in RNALATER solution (Ambion) at −80° C. RNA isolation and gene expression analysis were performed as described below.
RNA isolation was carried out using the following protocol. A section of each organ was diced, 875 μl of RLT buffer (RNEASY kit; Qiagen Inc., Valencia Calif.) was added, and the pieces were homogenized for about 20 seconds using a rotor-stator POLYTRON homogenizer (Kinematica, Inc., Cincinnati Ohio). […] The RNA was eluted into […] of water and quantitated with RIBOGREEN reagent (Molecular Probes, Eugene Oreg.). The absorbance at 260 and 280 nm was measured to determine RNA purity and concentration.
Alternatively, tissue samples were diced and homogenized in TRIZOL reagent (Invitrogen Life Technologies, Carlsbad Calif.) using a rotor-stator POLYTRON homogenizer (Kinematica). […] The absorbance at 260 and 280 nm was measured to determine RNA purity and concentration. […]

H9c2 rat cardiomyocytes = test: Intracellular ATP levels in H9c2 cardiomyocytes after oxygen and glucose deprivation (glucose-free DMEM, 2 mM KCN); assay type: cell-based; details: H9c2, 20 μM pretreatment 24 hours, glucose-free DMEM and 2 mM KCN for 30 minutes; vehicle control 415
Protocol: In similar experiments, H9c2 rat cardiomyocytes were pretreated with either vehicle control (0.5% DMSO) or 20 μM of Compound A, Compound B, Compound C, Compound D, Compound E, Compound F, Compound G, or compound H. After 24 hours, cells were washed with serum-free DMEM and subjected to oxygen and glucose deprivation by incubating the cells in glucose-free DMEM and 2 mM KCN for 30 minutes. Intracellular ATP levels were then determined.

[1] = tested on: gene encoding adrenomedullin; test: Adrenomedullin gene expression in Hep3B cells (microarray); assay type: cell-based, human; details: 25 μM compound, 6 hrs, average of two determinations
Protocol: Hep3B cells (ATCC No. HB-8064) were grown in DMEM containing 8% fetal bovine serum. Hep3B cells were seeded into 6-well culture dishes at ˜500,000 cells per well. After 8 hours, the media was changed to DMEM containing 0.5% fetal bovine serum and the cells were incubated for an additional 16 hours. Compound A, compound B, compound C, compound G, or compound H was added to the cells (25 μM final concentration) and the cells were incubated for various times. Control cells were incubated with vehicle (DMSO) with no compound treatment. Harvested cells were assessed for cell viability (GUAVA), or added to RNA extraction buffer (RNeasy, Qiagen) and stored at −20° C. for subsequent RNA purification.
RNA was precipitated in 0.3 M sodium acetate (pH 5.2), 50 ng/ml glycogen, and 2.5 volumes of ethanol for one hour at −20° C. Samples were centrifuged and pellets were washed with cold 80% ethanol, dried, and resuspend in water. Double stranded cDNA was synthesized using a T7-(dT)24 first strand primer (Affymetrix, Inc., Santa Clara Calif.) and the SUPERSCRIPT CHOICE system (Invitrogen) according to the manufacturer's instructions. The final cDNA was extracted with an equal volume of 25:24:1 phenol:chloroform:isoamyl alcohol using a PHASE LOCK GEL insert (Brinkman, Inc., Westbury N.Y.). The aqueous phase was collected and cDNA was precipitated using 0.5 volumes of 7.5 M ammonium acetate and 2.5 volumes of ethanol. Alternatively, cDNA was purified using the GENECHIP sample cleanup module (Affymetrix) according to the manufacturer's instructions.
Biotin-labeled cRNA was synthesized from the cDNA in an in vitro […] (IVT) reaction using a BIOARRAY HighYield RNA transcript labeling kit (Enzo Diagnostics, Inc., Farmingdale N.Y.) according to the manufacturer's instructions. Final labeled product was purified and fragmented using the GENECHIP sample cleanup module (Affymetrix) according to the manufacturer's instructions.
Hybridization cocktail was prepared by bringing 5 μg probe to 100 μl in 1× hybridization buffer (100 mM MES, 1 M [Na^+], 20 mM EDTA, 0.01% Tween 20), 100 μg/ml herring sperm DNA, 500 μg/ml acetylated BSA, 0.03 nM contol oligo B2 (Affymetrix), and 1× GENECHIP eukaryotic hybridization control (Affymetrix). The cocktail was sequentially incubated at 99° C. for 5 minutes and 45° C. for 5 minutes, and then centrifuged for 5 minutes. The […] array (Affymetrix) was brought to room temperature and then prehybridized with 1× hybridization buffer at 45° C. for 10 minutes with rotation. The buffer was then replaced with 80 μl hybridization cocktail and the array was hybridized for 16 hours at 45° C. at 60 rpm with counter balance. Following hybridization, arrays were washed once with 6×SSPE, 0.1% Tween 20, and then washed and stained using R-phycoerythrin-conjugated streptavidin (Molecular Probes, Eugene Oreg.), goat anti-streptavidin antibody (Vector Laboratories, Burlingame Calif.), and a GENECHIP Fluidics Station 400 instrument (Affymetrix) according to the manufacturer's EukGE-WS2v4 protocol (Affymetrix). Arrays were analyzed using a GENEARRAY scanner (Affymetrix) and Microarray Suite software (Affymetrix).
RNA quality was monitored by capillary electrophoresis (Agilent Bioanalyzer). […] Array performance was analyzed with Affymetrix MicroArray Suite (MAS) software and individual probe sets were assigned “present”, “marginal, and “absent” calls according to software defaults. […]

HO-1 protein = HO-1 protein levels in H9c2 cardiomyocytes by ELISA; assay type: cell-based, rat; details: H9c2, 100 μM compound; control 2.86
Protocol: In another series of experiments, H9c2 rat cardiomyocytes were treated with either vehicle control or with various concentrations (1 μM, 3 μM, 10 μM, 30 μM, and 100 μM) of compound C or compound G. Cell lysates were harvested and HO-1 protein levels determined by ELISA according to the manufacturer's instructions (cat # EKS-810; Stressgen, Victoria, BC, Canada). Data shown below in Table 4 represents values obtain with 100 μM compound.

[2] = tested on: adrenomedullin gene expression; test: Adrenomedullin gene expression in H9c2 cardiomyocytes with or without KCN challenge; assay type: cell-based, rat; details: H9c2, 10 μM compound 24 hours
Protocol: Adrenomedullin gene expression was also examined in cardiomyocytes treated with compound and subsequently challenged with KCN, an inhibitor of oxidative glucose metabolism. H9c2 rat cardiomyocytes were cultured in 96-well tissue culture plates (approximately 20,000 cells per well) in DMEM containing 10% fetal bovine serum. Media was changed to DMEM containing 0.5% fetal bovine serum, and the cells were treated with 10 μM compound C or compound D for 24 hours. Media was then replaced with glucose-free DMEM (Gibco/Invitrogen Cat. # 11966-025) containing 2 mM KCN (Sigma-Aldrich Cat. No. 207810). Results of adrenomedullin gene expression, presented as fold-increase in gene expression above DMSO control, are shown below in Table 2.

[3] = Animal Study III: mice, oral gavage, 100 mg/kg
[4] = then glucose-free DMEM with 2 mM KCN

O=C(O)CNC(=O)c1nc(Cl)c2ccccc2c1O [Compound H, [(1-Chloro-4-hydroxy-isoquinoline-3-carbonyl)-amino]-acetic acid]
HSP70-3 mRNA Levels Liver (gene encoding HSP70-3; Animal Study I: mice, oral gavage two times per day for 2.5 days, 200 mg/kg/day, four hours after final dose): 2.77 | HSP70-3 mRNA Levels Liver (gene encoding HSP70-3; [3]): 1.441 | HSP70-3 mRNA Levels Lung (gene encoding HSP70-3; [3]): 3.0 | ATP (relative light units) (H9c2 rat cardiomyocytes): 947 relative light units | Adrenomedullin gene expression, fold-increase above non-treated control [1]: 1.298 fold

O=C(O)c1c[nH]c2c(ccc3cccnc32)c1=O [Compound A, 4-Oxo-1,4-dihydro-[1,10]phenanthroline-3-carboxylic acid]
ATP (relative light units) (H9c2 rat cardiomyocytes): 968.5 relative light units | Adrenomedullin gene expression, fold-increase above non-treated control [1]: 3.582 fold

O=C(O)CNC(=O)c1nc(Br)c2cc(Oc3ccccc3)ccc2c1O [Compound F, [(1-Bromo-4-hydroxy-7-phenoxy-isoquinoline-3-carbonyl)-amino]-acetic acid]
ATP (relative light units) (H9c2 rat cardiomyocytes): 1134 relative light units

O=C(O)CNC(=O)c1ncc2cc(Sc3ccccc3)ccc2c1O [Compound C, [(4-Hydroxy-7-phenylsulfanyl-isoquinoline-3-carbonyl)-amino]-acetic acid]
ATP (relative light units) (H9c2 rat cardiomyocytes): 3710 relative light units | HO-1 (ng/mg total cell protein) (HO-1 protein): 102.68 ng/mg total cell protein | Adm gene expression, fold-increase above DMSO control ([2]; no KCN): 4.8 fold | Adm gene expression, fold-increase above DMSO control [2, 4]: 7.9 fold | Adrenomedullin gene expression, fold-increase above non-treated control [1]: 3.896 fold

O=C(O)CNC(=O)c1nc(Cl)c2cc(Oc3ccccc3)ccc2c1O [Compound E, [(1-Chloro-4-hydroxy-7-phenoxy-isoquinoline-3-carbonyl)-amino]-acetic acid]
ATP (relative light units) (H9c2 rat cardiomyocytes): 2043 relative light units

O=C(O)CNC(=O)c1ncc2ccc(Sc3ccccc3)cc2c1O [Compound D, [(4-Hydroxy-6-phenylsulfanyl-isoquinoline-3-carbonyl)-amino]-acetic acid]
ATP (relative light units) (H9c2 rat cardiomyocytes): 859.5 relative light units | Adm gene expression, fold-increase above DMSO control ([2]; no KCN): 2.2 fold | Adm gene expression, fold-increase above DMSO control [2, 4]: 4.2 fold

COc1ccc(CCN(CCC(=O)NO)S(=O)(=O)c2ccc(NC(=O)N(Cc3ccccc3)Cc3ccccc3)cc2)cc1 [Compound B, 3-{[4-(3,3-Dibenzyl-ureido)-benzenesulfonyl]-[2-(4-methoxy-phenyl)-ethyl]-amino}-N-hydroxy-propionamide]
ATP (relative light units) (H9c2 rat cardiomyocytes): 683.5 relative light units | Adrenomedullin gene expression, fold-increase above non-treated control [1]: 8.334 fold
